# Key:
# Assay type in all cases: cell-based
# Candida albicans = assay: Microbial challenge testing in BPW; conditions: for Grade code, C. albicans, 3 Day / Grade code, C. albicans, 14 Day / Grade code, C. albicans, 30 Days: BPW, w/v % in label, average of replicates
# Method: The microorganisms used in challenge tests are given in Table 3, designated as either ATCC (American Type Culture Collection) or wild type. These wild type organisms were problematic organisms previously isolated from chemical products. In the description for each organism, the bacteria are indicated as either GN (Gram negative) or GP (Gram positive).
# All of the microorganisms were grown in Tryptose Soy Broth (TSB), DIFCO™ available from Becton, Dickinson and Company, containing 1% dextrose. Aspergillus niger and Candida albicans were incubated at 22° C.±2° C. for at least 96 hours. All bacteria were incubated at 35° C.±2° C. in a humidified incubator for at least 96 hours.
# Aspergillus niger and Candida albicans were also grown on Sabouraud dextrose agar (SDA) at 22° C.±2° C. for 7 to 14 days or until full sporulation was achieved.
# The following procedure was followed to determine the amount of each challenge material (inoculum broth) required to produce a 10^8 cfu/mL challenge, which is equivalent to a final test-sample microbial concentration of 10^5 to 10^6 cfu (colony-forming units)/mL.
# Using a sterile serological pipette, 1 mL of the growth from each TSB culture was transferred into tubes containing 9 mL phosphate buffer (pH 7.2) and mixed thoroughly. This process was repeated to make serial 1:10 dilutions. Then 0.1 mL of each sample and dilution was inoculated onto agar plates to produce the equivalent of a further 1:10 dilution. C. albicans and A. niger were inoculated onto SDA and bacteria were inoculated onto Plate Count Agar (PCA), DIFCO™ available from Becton, Dickinson and Company. The 0.1 mL aliquots were evenly distributed on the plates using the spread-plate technique. The spread-plate technique is performed by spreading the aliquot over the entire plate surface using a sterile spreading rod while rotating the plate with a rotary auto-plater. After the inoculum was absorbed completely, each plate was inverted and incubated (fungi at 22° C.±2° C. and bacteria at 35° C.±2° C.).
# After incubation for at least 48 hours, colonies that had developed on the agar plates were counted and recorded with the corresponding dilution. If counting had to be delayed temporarily, plates were refrigerated, preferably no more than 24 hours, until they could be counted. The number of cfu/mL was determined by multiplying the count by the dilution factor for that particular plate.
# Turbidity in Nepholemetric Turbidity Units (NTU) was measured for each serial dilution using the HF-Micro 100 Model Turbidimeter. For each microorganism, the plate counts were compared to the turbidity readings.
# On the day of challenge, the Candida albicans inoculum broth was poured through non-absorbent sterile gauze and centrifuged. The […] was then diluted with phosphate buffer (pH 7.2) until the desired turbidity was reached. Using a hemocytometer, a determination was made whether the challenge contained the desired concentration. Dilutions were made through 1.0×10^8 and three SDA spread plates were inoculated with 0.1 mL of each dilution.
# Control substrates (“broth alone”) were prepared for each microorganism separately in triplicate by adding 13.5 mL of BPW (pH 7.0) containing 1% (w/v) dextrose to each 20-mL glass tube; then adding 1.5 mL challenge material to produce a final concentration at time zero of 10^5 to 10^6 cfu/mL and a total volume of 15 mL.
# Test sample substrates were prepared containing each test material (1,4-CHDM, etc) or combination of test materials at the concentrations shown in Tables 5 and 6.
# Microsporum canis = assay: Challenge testing with pathogenic fungi in SDB; conditions: w/v % in label, visual growth in tubes; for Grade code, Pathogenic Fungi, M. canis, 3 Days: 3 days incubation; for Grade code, Pathogenic Fungi, M. canis, 14 Days: 14 days incubation; for Grade code, Pathogenic Fungi, M. canis, 30 Days: 30 days incubation
# Method: (§1) Both M. canis and Trichophyton rubrum were grown on Sabouraud dextrose broth (SDB) (pH 5.6), while Malassezia fufur was grown in SDB supplemented with 2% (v/v) of olive oil and 0.2% (v/v) of Tween™ 80; incubation was at 22° C.±2° C. under continuous agitation by stirring for 10 days. The organisms were grown to a cell concentration of between 10^3 and 10^4 cfu/mL. The actual inoculation cell concentration of these challenges was determined by diluting in sterile buffer water and (spread-plate method) plating for enumeration.
# (§2) Challenge organisms were used to inoculate tubes containing each test material (CHDM, etc) or combination of test materials, at concentrations given in Table 5, in SDB (or for M. furfur, in SDB supplemented with olive oil and Tween™ 80). The inoculations were in the amount of 1.5 mL aliquots of each culture with static incubation at 22±2° C. Subcultures were made after 3-, 14-, and 30-days incubation. All challenges were conducted in triplicate. In the case of M. canis, the growth response was assessed by the visual presence or absence of growth in the tubes; in the case of T. rubrum, a respiratory dye (0.2% w/v aqueous INT solution: 2-(4-iodophenyl)-3-(4-nitrophenyl)-5-phenyl tetrazolium chloride) was added to the tubes, turning red if the organism was viable; and, finally, in the case of M. furfur, the growth response was assessed based upon visible pellicle formation in the tubes at the meniscus. The fungal growth in each tube was assigned a grade code as follows:
# (§3) 0: No visible growth 1: Some growth in tube 2: Moderate growth in tube 3: Good growth in tube 4: Extreme growth in tube
# (§4) All test material concentrations are given as w/v %. The grade codes given are the average of the grade codes for duplicate or triplicate samples.
# (§5) Table 5 compares the antimicrobial activity of 1,4-CHDM (AB) alone to 1,4-CHDM in combination with EDTA, phenoxyethanol (PE), and caprylyl glycol (CG). CHDM at 0.5% was tested with EDTA, and at 1.25 and 2.5% with EDTA, PE, and CG. (Note that the combination of CHDM with only EDTA was not tested against pathogenic fungi.) Results are also given for EDTA, PE, and CG alone, so the result for each mixture can be compared to the antimicrobial activity for each of its components individually. […] Possible synergies were determined by treating the grade code as an estimate of the log of the microbial count (log of cfu/mL). Log reductions can then be estimated by subtracting each grade code from the grade code for broth alone (grade code 5, except for the pathogenic fungi).
# Malassezia furfur = assay: Challenge testing with pathogenic fungi in SDB; conditions: SDB with olive oil and Tween 80, w/v % in label, pellicle formation; for Grade code, Pathogenic Fungi, M. furfur, 3 Days: 3 days incubation; for Grade code, Pathogenic Fungi, M. furfur, 14 Days: 14 days incubation; for Grade code, Pathogenic Fungi, M. furfur, 30 Days: 30 days incubation
# Method: as §1, §2, §3, §4, §5
# Trichophyton rubrum = assay: Challenge testing with pathogenic fungi in SDB; conditions: w/v % in label, INT respiratory dye; for Grade code, Pathogenic Fungi, T. ruburm, 3 Days: 3 days incubation; for Grade code, Pathogenic Fungi, T. ruburm, 14 Days: 14 days incubation; for Grade code, Pathogenic Fungi, T. ruburm, 30 Days: 30 days incubation
# Method: as §1, §2, §3, §4, §5
Compound,"Grade code, C. albicans, 3 Day (Candida albicans; 3 days incubation)","Grade code, C. albicans, 14 Day (Candida albicans; 14 days incubation)","Grade code, C. albicans, 30 Days (Candida albicans; 30 days incubation)","Grade code, Pathogenic Fungi, M. canis, 3 Days (Microsporum canis)","Grade code, Pathogenic Fungi, M. canis, 14 Days (Microsporum canis)","Grade code, Pathogenic Fungi, M. canis, 30 Days (Microsporum canis)","Grade code, Pathogenic Fungi, M. furfur, 3 Days (Malassezia furfur)","Grade code, Pathogenic Fungi, M. furfur, 14 Days (Malassezia furfur)","Grade code, Pathogenic Fungi, M. furfur, 30 Days (Malassezia furfur)","Grade code, Pathogenic Fungi, T. ruburm, 3 Days (Trichophyton rubrum)","Grade code, Pathogenic Fungi, T. ruburm, 14 Days (Trichophyton rubrum)","Grade code, Pathogenic Fungi, T. ruburm, 30 Days (Trichophyton rubrum)",further results
"O=C([O-])CN(CCN(CC(=O)O)CC(=O)O)CC(=O)[O-].[Na+].[Na+] [EDTA, ethylenediaminetetraacetic acid disodium salt]","4 (1001 to 10,000 colonies (thus 10,000 cfu/mL to 100,000 cfu/mL))","5 (More than 10,000 colonies estimated (thus >100,000 cfu/mL))","5 (More than 10,000 colonies estimated (thus >100,000 cfu/mL))",2,1,0,0,0,0,1,0,0,
"CC1(C)C(O)C(C)(C)C1O (stereo not drawn) [TMCD, 2,2,4,4-tetramethyl-1,3-cyclobutanediol]",,,,,,,,,,,,,"Grade code C. albicans (Candida albicans; 0.5%, 3 days incubation): 4 (1001 to 10,000 colonies (thus 10,000 cfu/mL to 100,000 cfu/mL)); Grade code C. albicans (Candida albicans; 0.5%, 14 days incubation): 4 (1001 to 10,000 colonies (thus 10,000 cfu/mL to 100,000 cfu/mL)); Grade code C. albicans (Candida albicans; 0.5%, 30 days incubation): 4 (1001 to 10,000 colonies (thus 10,000 cfu/mL to 100,000 cfu/mL)); Grade code C. albicans (Candida albicans; 1.25%, 3 days incubation): 3 (101 to 1000 colonies (thus 1000 to 10,000 cfu/mL)); Grade code C. albicans (Candida albicans; 1.25%, 14 days incubation): 4 (1001 to 10,000 colonies (thus 10,000 cfu/mL to 100,000 cfu/mL)); Grade code C. albicans (Candida albicans; 1.25%, 30 days incubation): 4 (1001 to 10,000 colonies (thus 10,000 cfu/mL to 100,000 cfu/mL)); Grade code C. albicans (Candida albicans; 2.5%, 3 days incubation): 3 (101 to 1000 colonies (thus 1000 to 10,000 cfu/mL)); Grade code C. albicans (Candida albicans; 2.5%, 14 days incubation): 2 (52 to 100 colonies counted (thus 520 to 1000 cfu/mL)); Grade code C. albicans (Candida albicans; 2.5%, 30 days incubation): 2 (52 to 100 colonies counted (thus 520 to 1000 cfu/mL))"
"CCCCCCC(O)CO (stereo not drawn) [CG, 1,2-octanediol]","3 (101 to 1000 colonies (thus 1000 to 10,000 cfu/mL))",0 (No growth detected or <1 colony (thus <10 cfu/mL)),0 (No growth detected or <1 colony (thus <10 cfu/mL)),0,0,0,0,0,0,0,0,0,
